From patent publication US20230096766A1, “AMINO ACID HAVING FUNCTIONAL GROUP CAPABLE OF INTERMOLECULAR HYDROGEN BONDING, PEPTIDE COMPOUND CONTAINING SAME AND METHOD FOR PRODUCTION THEREOF” (Chugai Seiyaku Kabushiki Kaisha, priority 2018, published 2023)
Where two headings read alike, the source gives them in different places. *1 amine or outer side, *2 acyl side, *3 side chain or, on linkers, in order; H or OH if unused. Where a SMILES comes first, the peptide text is derived from it. Bridges are numbered along the chain shown (N, C = ends). [ ]: non-standard residue; d: D form. The star is where a group is joined. ξ: configuration not given here. Phe(3-OMe,4-CONHMs) = COc1cc(C[C@H](N)C(=O)O)ccc1C(=O)NS(C)(=O)=O; X15 = CCCCN(CC(=O)C(C)[C@@H](CC(C)C)C(=O)[*:2])[*:1]; X5 = O=C([C@H](CCC[C@@H]1CC(F)(F)CN1)N[*:1])[*:2]; X1 = COc1cc(C[C@H](N[*:1])C(=O)[*:2])ccc1C(=O)NO; CH2(1,2,4-oxadiazolon-3-yl) = O=c1[nH]c(C*)no1; NMeAla(4-thiazolyl) = CN[C@@H](Cc1cscn1)C(=O)O; NMePhe(3-Cl) = CN[C@@H](Cc1cccc(Cl)c1)C(=O)O; hhPhe = N[C@@H](CCCc1ccccc1)C(=O)O; NMeF = CN[C@@H](Cc1ccccc1)C(=O)O; NMeI = CC[C@H](C)[C@H](NC)C(=O)O; hPhe = N[C@@H](CCc1ccccc1)C(=O)O; NMeD = CN[C@@H](CC(=O)O)C(=O)O; CH2CH(OH)CF3 = OC(C*)C(F)(F)F; NMeL = CN[C@@H](CC(C)C)C(=O)O; NMeV = CN[C@H](C(=O)O)C(C)C; NMeAbu = CC[C@H](NC)C(=O)O; NMeA = CN[C@@H](C)C(=O)O; Piperidide = C1CCN(*)CC1; dNMeA = CN[C@H](C)C(=O)O; NBuGly = CCCCNCC(=O)O; NPrGly = CCCNCC(=O)O; X2 = Fc1cncc(C*)c1; Bn = c1ccc(C*)cc1; ξS = NC(CO)C(=O)O; Sar = CNCC(=O)O; tBu = CC(C)(C)*

How the values were obtained:
in vitro = details: human
[1] = Membrane permeability test of cyclic peptides (Caco-2, modified/improved method of WO 2018/124162); details: human
[2] = Caco-2, Caco-2 (cm/sec), membrane permeability of cyclic peptides, Caco-2

Row | Compound | Papp (in vitro; Caco-2, Caco-2 (cm/sec)) [×10⁻⁶ cm/s] | Caco-2 (Caco-2) [cm/s] | other results
1 | CC[C@H](C)[C@H]1C(=O)N[C@@H]([C@@H](C)O)C(=O)N(C)CC(=O)N(C)[C@@H](CC(C)C)C(=O)N[C@H](C(=O)N2CCCCC2)CC(=O)N(C)[C@@H](C)C(=O)NC(COc2cccc(Cl)c2)C(=O)N(C)[C@@H](CC(C)C)C(=O)N(C)[C@@H](Cc2ccccc2)C(=O)N[C@@H](C)C(=O)N(C)[C@@H](Cc2ccccc2)C(=O)N1C (some centres unmarked) [pd188] | 1.8 | 1.3e-06 | Caco-2 (Caco-2; human): 1.3e-06 cm/s
2 | CC(C)C[C@H]1C(=O)N[C@@H]([C@@H](C)O)C(=O)N(C)CC(=O)N(C)[C@@H](C(C)C)C(=O)N[C@@H](Cc2ccccc2)C(=O)N(C)[C@@H](Cc2cccc(Cl)c2)C(=O)N(C)[C@@H](CC(C)C)C(=O)N(C)[C@H](C(=O)N2CCCCC2)CC(=O)N(C)[C@H](C)C(=O)N[C@@H](Cc2ccccc2)C(=O)N[C@@H](COC(C)(C)C)C(=O)N1C [pd167] ([dNMeA]FS(tBu)[NMeL]T[Sar][NMeV]F[NMePhe(3-Cl)][NMeL][NMeD]-Piperidide; lactam N-11) | 1.7 | 1.7e-06 | 
3 | CC(C)C[C@H]1C(=O)N(C)[C@@H](Cc2ccccc2)C(=O)N[C@@H](COC(C)(C)C)C(=O)N(C)[C@@H](C)C(=O)N[C@H](C(=O)N2CCCCC2)CC(=O)N(C)[C@@H](C)C(=O)N(C)[C@@H](Cc2ccccc2)C(=O)N[C@@H](CCc2ccccc2)C(=O)N(C)[C@@H](CC(C)C)C(=O)N[C@@H]([C@@H](C)O)C(=O)N(C)CC(=O)N1C [pd183] ([NMeA][NMeF][hPhe][NMeL]T[Sar][NMeL][NMeF]S(tBu)[NMeA]D-Piperidide; lactam N-11) | 2.1 | 2.1e-06 | 
4 | CC(C)C[C@H]1C(=O)N[C@@H](COC(C)(C)C)C(=O)N(C)[C@@H](Cc2ccccc2)C(=O)N(C)[C@@H](C(C)C)C(=O)N[C@H](C(=O)N2CCCCC2)CC(=O)N[C@H](C(C)C)C(=O)N(C)[C@@H](Cc2ccccc2)C(=O)N[C@@H](COCc2cncc(F)c2)C(=O)N(C)[C@@H](CC(C)C)C(=O)N[C@@H]([C@@H](C)O)C(=O)N(C)CC(=O)N1C [pd180] ([dV][NMeF]S(X2)[NMeL]T[Sar][NMeL]S(tBu)[NMeF][NMeV]D-Piperidide; lactam N-11) | 2.4 |  | Caco-2 (cm/sec) (Caco-2): 2 4E−06 cm/sec
5 | CCCCN1CC(=O)N(C)[C@@H](CC(C)C)C(=O)N[C@@H](COC(C)(C)C)C(=O)N(C)[C@@H]([C@@H](C)CC)C(=O)N(C)[C@@H](CC(C)C)C(=O)N[C@H](C(=O)N2CCCCC2)CC(=O)N[C@H](C)C(=O)N(C)[C@@H](Cc2ccccc2)C(=O)N[C@@H](Cc2ccc(C(=O)NO)c(OC)c2)C(=O)N(C)[C@@H](CC(C)C)C(=O)N[C@@H]([C@@H](C)O)C1=O [AP258] ([dA][NMeF][X1][NMeL]T[NBuGly][NMeL]S(tBu)[NMeI][NMeL]D-Piperidide; lactam N-11) | 0.03 |  | Caco-2 (Caco-2; human): 2e-08 cm/s
6 | CCCCN1CC(=O)N(C)[C@@H](CC(C)C)C(=O)N[C@@H](COC(C)(C)C)C(=O)N(C)[C@@H](Cc2ccccc2)C(=O)N(C)[C@@H](CC(C)C)C(=O)N[C@H](C(=O)N2CCCCC2)CC(=O)N[C@H](C(C)C)C(=O)N(C)[C@@H](Cc2ccccc2)C(=O)N[C@@H](COCC(O)C(F)(F)F)C(=O)N(C)[C@@H](CC(C)C)C(=O)N[C@@H]([C@@H](C)O)C1=O (stereo partly drawn) [Compound D01] ([dV][NMeF]S(CH2CH(OH)CF3)[NMeL]T[NBuGly][NMeL]S(tBu)[NMeF][NMeL]D-Piperidide; lactam N-11) |  |  | Caco-2 (membrane permeability) (Caco-2; human): 0.07 ×10⁻⁶ cm/s
7 | CC(C)C[C@H]1C(=O)N[C@@H]([C@@H](C)O)C(=O)N(C)CC(=O)N(C)[C@@H](Cc2ccccc2)C(=O)N(C)[C@@H](CC(C)C)C(=O)N[C@@H](COC(C)(C)C)C(=O)N(C)[C@@H](CC(C)C)C(=O)N[C@H](C(=O)N2CCCCC2)CC(=O)N(C)CC(=O)N(C)[C@@H](Cc2ccccc2)C(=O)N[C@@H](COCc2ccccc2)C(=O)N1C [pd177] ([Sar][NMeF]S(Bn)[NMeL]T[Sar][NMeF][NMeL]S(tBu)[NMeL]D-Piperidide; lactam N-11) | 3 | 3e-06 | 
8 | CC(C)C[C@H]1C(=O)N[C@@H]([C@@H](C)O)C(=O)N(C)CC(=O)N(C)[C@@H](C(C)C)C(=O)N[C@@H](Cc2ccccc2)C(=O)N(C)[C@@H](Cc2cccc(Cl)c2)C(=O)N(C)[C@@H](CC(C)C)C(=O)N(C)[C@H](C(=O)N2CCCCC2)CC(=O)N2CCC[C@@H]2C(=O)N[C@@H](Cc2ccccc2)C(=O)N[C@@H](COC(C)(C)C)C(=O)N1C [pd163] ([dP]FS(tBu)[NMeL]T[Sar][NMeV]F[NMePhe(3-Cl)][NMeL][NMeD]-Piperidide; lactam N-11) | 1.7 | 1.7e-06 | 
9 | CC(C)C[C@H]1C(=O)N[C@@H](COC(C)(C)C)C(=O)N(C)[C@@H](Cc2ccccc2)C(=O)N(C)[C@@H](C(C)C)C(=O)N[C@H](C(=O)N2CCCCC2)CC(=O)N[C@H](C)C(=O)N(C)[C@@H](Cc2ccccc2)C(=O)NC(COc2cccc(Cl)c2)C(=O)N(C)[C@@H](C(C)C)C(=O)N[C@@H]([C@@H](C)O)C(=O)N(C)CC(=O)N1C (some centres unmarked) [pd185] | 2.2 | 2.2e-06 | 
10 | CC(C)C[C@@H]1NC(=O)[C@H](Cc2ccccc2)N(C)C(=O)[C@H](C)N(C)C(=O)C[C@@H](C(=O)N2CCCCC2)NC(=O)[C@H](CC(C)C)N(C)C(=O)[C@H](Cc2ccccc2)N(C)C(=O)[C@H](Cc2ccccc2)NC(=O)[C@H](Cc2cscn2)N(C)C(=O)[C@H](C)N(C)C(=O)[C@H](CC(C)C)N(C)C(=O)[C@H]([C@@H](C)O)NC1=O [pd238] ([NMeA][NMeF]LT[NMeL][NMeA][NMeAla(4-thiazolyl)]F[NMeF][NMeL]D-Piperidide; lactam N-11) |  |  | Papp (in vitro; Caco-2, Caco-2 (cm/sec) Papp): 0.096 ×10⁻⁶ cm/s; Caco-2 (cm/sec) Papp (Caco-2; human): 8.8e-08 cm/s
11 | CC(C)C[C@@H]1NC(=O)[C@H](CC(C)C)N(C)C(=O)[C@H](C)N(C)C(=O)C[C@@H](C(=O)N2CCCCC2)NC(=O)[C@H](CC(C)C)N(C)C(=O)[C@H](Cc2ccccc2)N(C)C(=O)[C@H](Cc2ccccc2)N(C)C(=O)[C@H]([C@@H](C)O)NC(=O)[C@H](Cc2ccccc2)N(C)C1=O [pd211] ([NMeA][NMeL]L[NMeF]T[NMeF][NMeF][NMeL]D-Piperidide; lactam N-9) |  |  | Caco-2 (Caco-2; human): 1.4e-05 cm/s
12 | CCCCN1CC(=O)N(C)[C@@H](CC(C)C)C(=O)N[C@@H](COC(C)(C)C)C(=O)N(C)[C@@H](Cc2ccccc2)C(=O)N(C)[C@@H](CC(C)C)C(=O)N[C@H](C(=O)N2CCCCC2)CC(=O)N[C@H](C(C)C)C(=O)N(C)[C@@H](Cc2ccccc2)C(=O)N[C@@H](COCC(O)C(F)(F)F)C(=O)N(C)[C@@H](CC(C)C)C(=O)N[C@@H]([C@@H](C)O)C1=O (stereo partly drawn) [Compound C01] ([dV][NMeF]S(CH2CH(OH)CF3)[NMeL]T[NBuGly][NMeL]S(tBu)[NMeF][NMeL]D-Piperidide; lactam N-11) |  |  | Caco-2 (membrane permeability) (Caco-2; human): 0.15 ×10⁻⁶ cm/s
13 | CCCN1CC(=O)N(C)[C@@H](Cc2ccccc2)C(=O)N[C@@H]([C@@H](C)CC)C(=O)N(C)[C@@H](Cc2ccccc2)C(=O)N[C@@H]([C@@H](C)O)C(=O)N(C)CC(=O)N(C)[C@@H](Cc2ccccc2)C(=O)N(C)[C@@H](CC(C)C)C(=O)N[C@@H](COC(C)(C)C)C(=O)N(C)[C@@H](C(C)C)C(=O)N[C@H](C(=O)N2CCCCC2)CC1=O [pd195] ([NPrGly][NMeF]I[NMeF]T[Sar][NMeF][NMeL]S(tBu)[NMeV]D-Piperidide; lactam N-11) | 5 | 5e-06 | 
14 | CC[C@H](C)[C@@H]1NC(=O)[C@H](Cc2ccccc2)N(C)C(=O)CN(C)C(=O)C[C@@H](C(=O)N2CCCCC2)NC(=O)[C@H](C)N(C)C(=O)[C@H](CCCc2ccccc2)NC(=O)[C@H](CC(C)C)N(C)C(=O)[C@H](Cc2ccccc2)N(C)C(=O)CN(C)C(=O)[C@H]([C@@H](C)O)NC(=O)[C@H](CC(C)C)N(C)C1=O [pd190] ([Sar][NMeF]I[NMeL]T[Sar][NMeF][NMeL][hhPhe][NMeA]D-Piperidide; lactam N-11) | 1.5 | 1.5e-06 | 
15 | CCCCN1CC(=O)C(C)[C@@H](CC(C)C)C(=O)NC(COCc2noc(=O)[nH]2)C(=O)N(C)[C@@H](Cc2ccccc2)C(=O)N(C)[C@@H](CC(C)C)C(=O)N[C@H](C(=O)N2CCCCC2)CC(=O)N[C@H](CC(C)C)C(=O)N(C)[C@@H](CC(C)C)C(=O)N[C@@H]([C@@H](C)CC)C(=O)N(C)[C@@H](CC(C)C)C(=O)N[C@@H]([C@@H](C)O)C1=O (stereo partly drawn) [AP44] ([dL][NMeL]I[NMeL]T[X15][ξS](CH2(1,2,4-oxadiazolon-3-yl))[NMeF][NMeL]D-Piperidide; lactam N-10) |  |  | Papp [1, 2]: 0.3 ×10⁻⁶ cm/s
16 | CC(C)C[C@@H]1NC(=O)[C@H](C)N(C)C(=O)C[C@@H](C(=O)N2CCCCC2)NC(=O)[C@H](CC(C)C)N(C)C(=O)CN(C)C(=O)[C@H](CCC[C@@H]2CC(F)(F)CN2)NC(=O)[C@H](CC(C)C)N(C)C(=O)[C@H](CC(C)C)N(C)C(=O)[C@H](CC(C)C)NC(=O)[C@H](Cc2ccccc2)N(C)C(=O)[C@H](C)N(C)C1=O [Compound H10] ([NMeA]L[NMeA][NMeF]L[NMeL][NMeL][X5][Sar][NMeL]D-Piperidide; lactam N-11) |  |  | Papp ([1]; Caco-2, Caco-2 (membrane permeability), Table 10, cyclic peptides containing Ser(S-4-F2-Pyrro-Me) (G) or Nva(2-R-4-F2-Pyrro) (H)): 0.43 ×10⁻⁶ cm/s
17 | CC[C@H](C)[C@H]1C(=O)N[C@@H]([C@@H](C)O)C(=O)N(C)CC(=O)N(C)[C@@H](CC)C(=O)N[C@H](C(=O)N2CCCCC2)CC(=O)N(C)[C@@H](CC(C)C)C(=O)N[C@@H](Cc2ccc(C(=O)NS(C)(=O)=O)c(OC)c2)C(=O)N(C)[C@@H](CC(C)C)C(=O)N(C)[C@@H](Cc2ccccc2)C(=O)N[C@@H](CC(C)C)C(=O)N(C)[C@@H](CC(C)C)C(=O)N1C [AP139] ([NMeL][Phe(3-OMe,4-CONHMs)][NMeL][NMeF]L[NMeL][NMeI]T[Sar][NMeAbu]D-Piperidide; lactam N-11) |  |  | Papp [1, 2]: < 0.25 ×10⁻⁶ cm/s
